Assay results taken from PMC8632988, “Inhibition of SYK and cSrc kinases can protect bone and cartilage in preclinical models of osteoarthritis and rheumatoid arthritis” (Scientific Reports, 2021).
Several values for one entry are separate records, joined by “and”; a condition that tells them apart may be missing. Identical values can stand only once. Like-named read-outs stand apart in the source and are kept apart here.

Experiments:
Assay in all cases: Kinase selectivity profile assay
Type in all cases: biochemical
CAMK2d = biological target: T1, CAMK2d (Homo sapiens, UniProt Q13557); settings: read-out: Residual enzymatic activity
T1 construct: purchased Reaction Biology Corporation
Outline: (§1)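 Radiometric kinase assay run by a standard protocol. Unbound phosphate was removed by washing filters in phosphoric acid, and product radioactivity gave percent remaining kinase activity versus DMSO vehicle reactions. Run in duplicate.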

CAMK2g = biological target: T2, CAMK2g (Homo sapiens, UniProt Q13555); settings: 500 nM; relative to DMSO; read-out: Residual enzymatic activity
T2 construct: purchased Reaction Biology Corporation
Outline: as §1

CDK6/cyclin D3 = biological target: T3, CDK6/cyclin D3 (Homo sapiens, UniProt Q00534); settings: 500 nM; relative to DMSO; read-out: Residual enzymatic activity
T3 construct: purchased Reaction Biology Corporation
Outline: as §1

DCAMKL1 = biological target: T4, DCAMKL1 (Homo sapiens, UniProt O15075); settings: 500 nM; relative to DMSO; read-out: Residual enzymatic activity
T4 construct: purchased Reaction Biology Corporation
Outline: as §1

EPHB1 = biological target: T5, EPHB1 (Homo sapiens, UniProt P54762); settings: for remaining activity at 0.5 µM: 500 nM, relative to DMSO, read-out: Residual enzymatic activity
T5 construct: purchased Reaction Biology Corporation (assay service)
T5 sequence (P54762 18-984): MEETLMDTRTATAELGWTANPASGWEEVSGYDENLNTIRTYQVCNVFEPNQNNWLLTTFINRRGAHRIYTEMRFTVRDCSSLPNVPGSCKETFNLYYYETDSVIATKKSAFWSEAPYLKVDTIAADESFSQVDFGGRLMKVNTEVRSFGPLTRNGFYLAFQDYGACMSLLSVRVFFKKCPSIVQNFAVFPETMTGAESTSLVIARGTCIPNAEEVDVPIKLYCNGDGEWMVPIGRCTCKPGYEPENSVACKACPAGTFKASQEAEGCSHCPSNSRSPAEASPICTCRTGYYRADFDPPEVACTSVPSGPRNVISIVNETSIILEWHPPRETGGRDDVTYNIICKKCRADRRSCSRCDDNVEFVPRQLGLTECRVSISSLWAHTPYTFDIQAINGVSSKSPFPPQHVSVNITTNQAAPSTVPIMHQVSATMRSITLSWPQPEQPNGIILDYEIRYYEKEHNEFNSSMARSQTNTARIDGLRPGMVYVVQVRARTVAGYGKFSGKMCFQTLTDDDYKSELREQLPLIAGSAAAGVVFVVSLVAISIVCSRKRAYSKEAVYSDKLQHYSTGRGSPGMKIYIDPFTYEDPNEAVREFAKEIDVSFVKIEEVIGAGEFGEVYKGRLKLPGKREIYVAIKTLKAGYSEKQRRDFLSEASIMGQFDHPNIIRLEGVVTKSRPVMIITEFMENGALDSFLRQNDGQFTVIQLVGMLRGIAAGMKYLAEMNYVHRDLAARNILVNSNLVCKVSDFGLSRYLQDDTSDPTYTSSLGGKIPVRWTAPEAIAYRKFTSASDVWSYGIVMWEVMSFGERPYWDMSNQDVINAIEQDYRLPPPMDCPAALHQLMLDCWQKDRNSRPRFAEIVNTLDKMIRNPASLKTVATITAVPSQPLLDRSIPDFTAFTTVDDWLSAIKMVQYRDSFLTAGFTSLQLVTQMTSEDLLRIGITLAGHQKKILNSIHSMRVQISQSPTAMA
Outline: as §1

ERK2/MAPK1 = biological target: T6, ERK2/MAPK1 (Homo sapiens, UniProt P28482); settings: 500 nM; relative to DMSO; read-out: Residual enzymatic activity
T6 construct: purchased Reaction Biology Corporation
Outline: as §1

FGFR3 = biological target: T7, FGFR3 (Homo sapiens, UniProt P22607); settings: 500 nM, relative to DMSO; for remaining activity at 0.5 µM: read-out: Residual enzymatic activity
T7 construct: purchased Reaction Biology Corporation
T7 sequence (P22607 23-806): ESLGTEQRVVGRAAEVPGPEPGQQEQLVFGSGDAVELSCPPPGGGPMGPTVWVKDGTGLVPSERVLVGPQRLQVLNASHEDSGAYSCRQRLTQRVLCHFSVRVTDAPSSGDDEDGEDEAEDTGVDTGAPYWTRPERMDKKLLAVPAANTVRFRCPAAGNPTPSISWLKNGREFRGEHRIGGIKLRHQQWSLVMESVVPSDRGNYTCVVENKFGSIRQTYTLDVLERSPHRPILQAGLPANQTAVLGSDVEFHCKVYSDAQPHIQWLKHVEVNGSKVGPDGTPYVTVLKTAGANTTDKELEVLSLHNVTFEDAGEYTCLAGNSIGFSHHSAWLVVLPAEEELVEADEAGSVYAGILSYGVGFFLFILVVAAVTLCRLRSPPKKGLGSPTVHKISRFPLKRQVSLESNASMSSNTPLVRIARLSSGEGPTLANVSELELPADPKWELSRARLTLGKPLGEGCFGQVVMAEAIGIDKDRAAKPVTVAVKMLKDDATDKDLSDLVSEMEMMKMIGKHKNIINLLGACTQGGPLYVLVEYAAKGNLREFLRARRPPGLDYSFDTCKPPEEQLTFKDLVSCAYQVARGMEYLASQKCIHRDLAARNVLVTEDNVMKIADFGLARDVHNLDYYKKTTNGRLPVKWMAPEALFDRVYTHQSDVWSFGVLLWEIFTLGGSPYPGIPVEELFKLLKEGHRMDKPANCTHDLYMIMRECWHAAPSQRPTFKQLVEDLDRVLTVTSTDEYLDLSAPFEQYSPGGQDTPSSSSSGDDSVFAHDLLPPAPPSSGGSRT
Outline: as §1

GSK3b = biological target: T8, GSK3b (Homo sapiens, UniProt P49841); settings: 500 nM; relative to DMSO; read-out: Residual enzymatic activity
T8 construct: purchased Reaction Biology Corporation
Outline: as §1

HIPK1 = biological target: T9, HIPK1 (Homo sapiens, UniProt Q86Z02); settings: 500 nM; relative to DMSO; read-out: Residual enzymatic activity
T9 construct: purchased Reaction Biology Corporation
T9 sequence (Q86Z02 whole entry): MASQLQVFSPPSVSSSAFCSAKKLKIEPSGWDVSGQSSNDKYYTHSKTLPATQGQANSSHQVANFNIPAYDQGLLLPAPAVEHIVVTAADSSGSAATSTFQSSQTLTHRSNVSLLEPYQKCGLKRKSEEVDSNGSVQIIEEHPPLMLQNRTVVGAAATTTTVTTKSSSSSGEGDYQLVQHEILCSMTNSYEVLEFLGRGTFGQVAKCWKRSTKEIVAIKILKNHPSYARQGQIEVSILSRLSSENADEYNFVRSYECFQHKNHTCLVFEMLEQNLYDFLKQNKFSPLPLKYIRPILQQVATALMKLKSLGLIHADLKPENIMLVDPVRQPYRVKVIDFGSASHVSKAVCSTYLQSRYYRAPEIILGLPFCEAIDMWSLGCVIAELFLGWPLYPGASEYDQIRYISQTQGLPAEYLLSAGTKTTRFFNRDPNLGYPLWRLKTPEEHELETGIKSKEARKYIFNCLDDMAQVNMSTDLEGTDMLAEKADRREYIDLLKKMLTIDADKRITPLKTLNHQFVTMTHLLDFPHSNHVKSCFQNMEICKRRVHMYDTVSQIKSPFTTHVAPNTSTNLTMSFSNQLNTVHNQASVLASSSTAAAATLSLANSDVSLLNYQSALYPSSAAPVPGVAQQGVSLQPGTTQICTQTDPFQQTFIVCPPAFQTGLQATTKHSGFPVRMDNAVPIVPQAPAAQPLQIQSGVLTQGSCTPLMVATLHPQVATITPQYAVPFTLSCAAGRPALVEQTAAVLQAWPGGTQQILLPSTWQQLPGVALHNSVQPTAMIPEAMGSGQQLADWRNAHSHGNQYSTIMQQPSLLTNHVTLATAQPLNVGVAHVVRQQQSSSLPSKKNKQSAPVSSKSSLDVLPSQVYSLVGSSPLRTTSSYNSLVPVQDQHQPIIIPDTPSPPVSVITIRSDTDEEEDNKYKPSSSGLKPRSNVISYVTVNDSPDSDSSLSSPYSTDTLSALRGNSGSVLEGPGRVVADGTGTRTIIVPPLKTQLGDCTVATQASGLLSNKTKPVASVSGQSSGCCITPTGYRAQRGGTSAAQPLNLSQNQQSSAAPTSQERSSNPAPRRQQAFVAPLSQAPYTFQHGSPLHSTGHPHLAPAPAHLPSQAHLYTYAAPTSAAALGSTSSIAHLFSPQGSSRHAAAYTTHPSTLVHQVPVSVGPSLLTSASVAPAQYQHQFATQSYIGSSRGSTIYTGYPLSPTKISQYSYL
Outline: as §1

LRRK2 = biological target: T10, LRRK2 (Homo sapiens, UniProt Q5S007); settings: for remaining activity at 0.5 µM: 500 nM, relative to DMSO, read-out: Residual enzymatic activity
T10 construct: purchased Reaction Biology Corporation (assay service)
T10 sequence (Q5S007 whole entry): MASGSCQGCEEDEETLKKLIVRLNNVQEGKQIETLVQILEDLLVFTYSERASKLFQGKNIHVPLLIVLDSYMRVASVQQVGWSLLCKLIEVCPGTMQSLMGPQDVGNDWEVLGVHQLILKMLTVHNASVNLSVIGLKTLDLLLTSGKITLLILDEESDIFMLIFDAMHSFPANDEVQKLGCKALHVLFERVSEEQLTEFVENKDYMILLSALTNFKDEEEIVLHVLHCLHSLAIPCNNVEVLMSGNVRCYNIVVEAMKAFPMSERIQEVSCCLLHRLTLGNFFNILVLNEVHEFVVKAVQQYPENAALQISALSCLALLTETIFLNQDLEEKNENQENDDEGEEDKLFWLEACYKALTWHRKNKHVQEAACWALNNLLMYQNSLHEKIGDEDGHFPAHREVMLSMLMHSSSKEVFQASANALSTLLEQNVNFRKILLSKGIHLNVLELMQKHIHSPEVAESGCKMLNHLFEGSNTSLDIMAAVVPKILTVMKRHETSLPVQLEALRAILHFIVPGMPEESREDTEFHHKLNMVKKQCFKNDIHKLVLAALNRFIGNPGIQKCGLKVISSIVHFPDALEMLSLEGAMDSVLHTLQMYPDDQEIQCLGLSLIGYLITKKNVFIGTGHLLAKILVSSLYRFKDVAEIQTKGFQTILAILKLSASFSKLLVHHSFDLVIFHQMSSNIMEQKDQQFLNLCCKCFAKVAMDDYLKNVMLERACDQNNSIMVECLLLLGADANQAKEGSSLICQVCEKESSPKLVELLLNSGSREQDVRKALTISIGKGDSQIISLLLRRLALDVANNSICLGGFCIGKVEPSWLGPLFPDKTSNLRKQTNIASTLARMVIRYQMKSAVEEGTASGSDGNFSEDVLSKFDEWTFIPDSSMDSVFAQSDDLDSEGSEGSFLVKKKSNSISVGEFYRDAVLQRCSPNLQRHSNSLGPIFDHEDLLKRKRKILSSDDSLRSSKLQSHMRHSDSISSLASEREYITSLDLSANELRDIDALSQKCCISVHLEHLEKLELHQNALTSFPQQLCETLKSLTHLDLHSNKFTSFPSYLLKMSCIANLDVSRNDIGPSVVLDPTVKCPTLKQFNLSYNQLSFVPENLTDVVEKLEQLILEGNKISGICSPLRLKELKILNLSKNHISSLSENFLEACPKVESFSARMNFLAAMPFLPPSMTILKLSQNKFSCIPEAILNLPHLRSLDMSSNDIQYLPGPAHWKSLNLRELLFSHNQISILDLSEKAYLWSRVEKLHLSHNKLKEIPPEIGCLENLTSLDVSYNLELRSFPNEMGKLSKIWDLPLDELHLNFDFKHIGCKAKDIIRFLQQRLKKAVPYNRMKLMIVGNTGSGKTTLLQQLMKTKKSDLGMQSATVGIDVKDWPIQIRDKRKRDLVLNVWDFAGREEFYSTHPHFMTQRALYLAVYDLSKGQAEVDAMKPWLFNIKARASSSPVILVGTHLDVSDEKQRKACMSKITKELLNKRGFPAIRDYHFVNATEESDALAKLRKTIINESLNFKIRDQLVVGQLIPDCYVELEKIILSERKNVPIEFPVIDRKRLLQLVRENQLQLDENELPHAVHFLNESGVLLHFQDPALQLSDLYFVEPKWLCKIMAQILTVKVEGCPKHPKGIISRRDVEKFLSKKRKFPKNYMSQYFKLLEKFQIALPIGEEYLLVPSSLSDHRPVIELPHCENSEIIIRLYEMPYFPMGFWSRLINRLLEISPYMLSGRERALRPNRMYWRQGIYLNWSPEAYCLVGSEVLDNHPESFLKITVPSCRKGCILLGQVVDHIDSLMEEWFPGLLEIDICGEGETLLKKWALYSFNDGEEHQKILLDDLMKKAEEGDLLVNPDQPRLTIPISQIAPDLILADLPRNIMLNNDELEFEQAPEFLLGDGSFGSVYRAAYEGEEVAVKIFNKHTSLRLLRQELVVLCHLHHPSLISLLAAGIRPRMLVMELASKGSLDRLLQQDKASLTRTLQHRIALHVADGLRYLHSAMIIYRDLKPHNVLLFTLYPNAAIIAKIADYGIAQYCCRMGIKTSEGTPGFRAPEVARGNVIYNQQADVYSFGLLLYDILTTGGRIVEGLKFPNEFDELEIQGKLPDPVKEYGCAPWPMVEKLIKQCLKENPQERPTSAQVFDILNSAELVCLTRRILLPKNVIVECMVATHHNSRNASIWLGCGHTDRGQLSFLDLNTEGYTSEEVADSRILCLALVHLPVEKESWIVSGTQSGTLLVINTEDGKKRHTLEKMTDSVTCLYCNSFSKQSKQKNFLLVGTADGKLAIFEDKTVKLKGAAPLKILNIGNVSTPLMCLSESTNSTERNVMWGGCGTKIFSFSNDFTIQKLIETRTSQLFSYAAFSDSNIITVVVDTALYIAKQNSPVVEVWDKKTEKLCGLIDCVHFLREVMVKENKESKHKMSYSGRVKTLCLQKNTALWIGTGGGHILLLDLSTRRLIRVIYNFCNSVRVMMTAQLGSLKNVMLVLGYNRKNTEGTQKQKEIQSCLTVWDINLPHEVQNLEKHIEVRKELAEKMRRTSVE
Outline: as §1

LYN B = biological target: T11, LYN B (Homo sapiens, UniProt P07948); settings: for remaining activity at 0.5 µM: 500 nM, relative to DMSO, read-out: Residual enzymatic activity
T11 construct: purchased Reaction Biology Corporation (assay service)
T11 sequence (P07948 1-491 isoform P07948-2): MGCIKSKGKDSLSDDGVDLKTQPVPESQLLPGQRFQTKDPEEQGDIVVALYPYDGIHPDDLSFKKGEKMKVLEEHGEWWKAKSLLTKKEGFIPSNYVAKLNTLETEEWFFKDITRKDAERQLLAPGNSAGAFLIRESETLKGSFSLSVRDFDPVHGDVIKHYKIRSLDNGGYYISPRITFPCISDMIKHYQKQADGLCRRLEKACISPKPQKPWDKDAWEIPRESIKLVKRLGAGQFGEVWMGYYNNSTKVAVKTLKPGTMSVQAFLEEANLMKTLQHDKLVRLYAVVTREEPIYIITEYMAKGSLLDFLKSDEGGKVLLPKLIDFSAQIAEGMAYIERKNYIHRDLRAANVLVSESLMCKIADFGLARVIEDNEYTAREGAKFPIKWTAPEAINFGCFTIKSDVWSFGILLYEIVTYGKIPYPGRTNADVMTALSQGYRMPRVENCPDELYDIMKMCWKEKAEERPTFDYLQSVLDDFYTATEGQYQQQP
Outline: as §1

MLCK/MYLK = biological target: T12, MLCK/MYLK (Homo sapiens, UniProt Q15746); settings: 500 nM; relative to DMSO; read-out: Residual enzymatic activity
T12 construct: purchased Reaction Biology Corporation
Outline: as §1

MNK1 = biological target: T13, MNK1 (Homo sapiens, UniProt Q9BUB5); settings: 500 nM; relative to DMSO; read-out: Residual enzymatic activity
T13 construct: purchased Reaction Biology Corporation
Outline: as §1

MST4 = biological target: T14, MST4 (Homo sapiens, UniProt Q9P289); settings: 500 nM; relative to DMSO; read-out: Residual enzymatic activity
T14 construct: purchased Reaction Biology Corporation
Outline: as §1

NLK = biological target: T15, NLK (Homo sapiens, UniProt Q9UBE8); settings: 500 nM; relative to DMSO; read-out: Residual enzymatic activity
T15 construct: purchased Reaction Biology Corporation
Outline: as §1

OSR1/OXSR1 = biological target: T16, OSR1/OXSR1 (Homo sapiens, UniProt O95747); settings: 500 nM; relative to DMSO; read-out: Residual enzymatic activity
T16 construct: purchased Reaction Biology Corporation
Outline: as §1

P38g = biological target: T17, P38g (Homo sapiens, UniProt P53778); settings: 500 nM; relative to DMSO; read-out: Residual enzymatic activity
T17 construct: purchased Reaction Biology Corporation
Outline: as §1

PASK = biological target: T18, PASK (Homo sapiens, UniProt Q96RG2); settings: 500 nM; relative to DMSO; read-out: Residual enzymatic activity
T18 construct: purchased Reaction Biology Corporation
Outline: as §1

PKN1/PRK1 = biological target: T19, PKN1/PRK1 (Homo sapiens, UniProt Q16512); settings: 500 nM; relative to DMSO; read-out: Residual enzymatic activity
T19 construct: purchased Reaction Biology Corporation
Outline: as §1

TAK1 = biological target: T20, TAK1 (Homo sapiens, UniProt O43318); settings: 500 nM; relative to DMSO; read-out: Residual enzymatic activity
T20 construct: purchased Reaction Biology Corporation
Outline: as §1

TLK1 = biological target: T21, TLK1 (Homo sapiens, UniProt Q9UKI8); settings: 500 nM; relative to DMSO; read-out: Residual enzymatic activity
T21 construct: purchased Reaction Biology Corporation
Outline: as §1

TYRO3/SKY = biological target: T22, TYRO3/SKY (Homo sapiens, UniProt Q06418); settings: 500 nM; relative to DMSO; read-out: Residual enzymatic activity
T22 construct: purchased Reaction Biology Corporation
Outline: as §1

ULK3 = biological target: T23, ULK3 (Homo sapiens, UniProt Q6PHR2); settings: 500 nM; relative to DMSO; read-out: Residual enzymatic activity
T23 construct: purchased Reaction Biology Corporation
Outline: as §1

WEE1 = biological target: T24, WEE1 (Homo sapiens, UniProt P30291); settings: 500 nM; relative to DMSO; read-out: Residual enzymatic activity
T24 construct: purchased Reaction Biology Corporation
Outline: as §1

WNK1 = biological target: T25, WNK1 (Homo sapiens, UniProt Q9H4A3); settings: 500 nM; relative to DMSO; read-out: Residual enzymatic activity
T25 construct: purchased Reaction Biology Corporation
Outline: as §1

WNK2 = biological target: T26, WNK2 (Homo sapiens, UniProt Q9Y3S1); settings: 500 nM; relative to DMSO; read-out: Residual enzymatic activity
T26 construct: purchased Reaction Biology Corporation
Outline: as §1

[1] = 10-dose mode, threefold serial dilution from 10 μM

Row | Compound | remaining activity at 0.5 µM (CAMK2g) | remaining activity at 0.5 µM (CDK6/cyclin D3) | remaining activity at 0.5 µM (DCAMKL1) | remaining activity at 0.5 µM (EPHB1) | remaining activity at 0.5 µM (ERK2/MAPK1) | remaining activity at 0.5 µM (FGFR3) | remaining activity at 0.5 µM (GSK3b) | remaining activity at 0.5 µM (HIPK1) | remaining activity at 0.5 µM (LRRK2) | remaining activity at 0.5 µM (LYN B) | remaining activity at 0.5 µM (MLCK/MYLK) | remaining activity at 0.5 µM (MNK1) | remaining activity at 0.5 µM (MST4) | remaining activity at 0.5 µM (NLK) | remaining activity at 0.5 µM (OSR1/OXSR1) | remaining activity at 0.5 µM (P38g) | remaining activity at 0.5 µM (PASK) | remaining activity at 0.5 µM (PKN1/PRK1) | remaining activity at 0.5 µM (TAK1) | remaining activity at 0.5 µM (TLK1) | also measured
1 | COc1cc(Nc2ncc(F)c(Nc3ccc4c(n3)NC(=O)C(C)(C)O4)n2)cc(OC)c1OC [R406, reference compound] | 101% | 97.4% | 84.2% | -4% | 88% | 17.4% | 37.9% | 90.8% | 5.5% | 14.5% | 90.5% | 61.5% | 94.8% | 107% | 97.2% | 90.5% | 106% | 62.6% | 48.3% | 75.1% | remaining activity at 0.5 µM (CAMK2d; 500 nM, relative to DMSO): 98.9%; remaining activity at 0.5 µM (TYRO3/SKY): 94.6%; remaining activity at 0.5 µM (ULK3): 20.3%; remaining activity at 0.5 µM (WEE1): 105%; remaining activity at 0.5 µM (WNK1): 103%; remaining activity at 0.5 µM (WNK2): 95.2%
2 | COc1cc(Nc2ncnc(Nc3cc4c(cn3)NC(=O)C(C)(C)O4)n2)cc(OC)c1OC [MT-SYK-03] | 100% | 101% | 97.6% | 9.6% | 90.6% | > 54% | 82.4% | 97.4% | 48% | 25.7% | 96.2% | 91.2% | 112% | 94.9% | 98.2% | 101% | 102% | 104% | 103% | 101% | remaining activity at 0.5 µM (CAMK2d): 104%; IC50 (EPHB1; [1]): 0.025 µM and 0.0247 µM; Residual enzymatic activity (FGFR3): 57.2%; IC50 (LRRK2; [1]): 0.206 µM; IC50 (LYN B; [1]): 0.0142 µM; remaining activity at 0.5 µM (TYRO3/SKY): 104%; remaining activity at 0.5 µM (ULK3): 74.9%; remaining activity at 0.5 µM (WEE1): 108%; remaining activity at 0.5 µM (WNK1): 106%; remaining activity at 0.5 µM (WNK2): 84.6%
